PMC5931107, “Clinical pharmacodynamic/exposure characterisation of the multikinase inhibitor ilorasertib (ABT-348) in a phase 1 dose-escalation trial” (British Journal of Cancer, 2018)
Where two headings read alike, the source gives them in different places.

Experiments:
[1] = Dose escalation: dose-limiting toxicities and MTD; assay type: in vivo
Text: Dose escalation was first conducted in Arm I and subsequently in Arms II and III. […] The pre-specified DLT criteria included any of the following events graded according to the Common Terminology Criteria for Adverse Events (CTCAE) version 4.0 considered ‘possibly’ or ‘probably’ related to the administration of ilorasertib in cycle 1: grade 4 absolute neutrophil count (ANC) decrease for >7 days or grade ≥ 3 ANC decrease with fever; grade 4 platelet count decrease; grade ≥ 3 proteinuria; grade 4 infusion reaction; grade ≥ 3 asthenia/fatigue; grade 3 nausea/vomiting for ≥48 h or diarrhoea for ≥72 h despite maximum supportive care; grade ≥ 2 neurotoxicity; unexpected grade 2 toxicity which required dose modification or delay of ≥1 week. Given the known adverse effects of VEGFR2 inhibition, specific criteria for hypertension were included: >150/100 mm Hg despite 2 weeks of clinically appropriate intervention, or severe hypertension at any blood pressure reading defined as systolic >200 mm Hg or diastolic > 110 mm Hg, or symptomatic hypertension at any reading; and for decline in left ventricular ejection fraction included: absolute decline >20% from baseline and/or a reduction to <39%. Except for the above categories, all grade ≥ 3 adverse events (AEs) without a definitive alternative etiology were also considered DLTs. AEs detected or worsened in cycle 2 and beyond could be incorporated into dose-escalation decisions at discretion of the investigators and study team.
The MTD was to be continually re-estimated by a logistic regression model as the dose at which the predicted DLT rate would be 30%. For the three arms, dose-escalation decisions were made after the patient(s) in a cohort completed dosing in cycle 1.
In Arm I, dosing commenced at 10 mg PO QD and was escalated to 180 mg PO QD. This initial starting dose was calculated using 1/6 of the highest non-severely toxic dose in dogs converted to human equivalent dose, using body surface area scaling and assuming a 60-kg human. Because of uncertainty of food effects on pharmacokinetics and the […] schedule, treatment was administered in a fasted state. […] Enrolment to Arm I was discontinued, on the basis of the protocol-specified continual reassessment method on which MTD was to be determined. […] This schedule was selected due to the anticipated lower maximum observed plasma concentration (Cmax) and greater total exposure, and the possibility that tolerability would be improved under these conditions. Dose escalation proceeded in Arm II, starting at 40 mg PO BID, and stopped at the 340-mg PO BID dose, since this dose met the protocol criteria for exceeding the MTD. The first dose was administered in the fasted state. The second dose of the treatment day was administered at least 4 h after a small meal. […]

[2] = tested on: advanced solid tumours; assay: Tumour response, RECIST version 1.1; assay type: in vivo, human; conditions: Arm II
Description: Disease effect endpoints were determined using Response Evaluation Criteria In Solid Tumors version 1.1. Tumour burden assessment was conducted within 21 days prior to cycle 1 day 1, every 8 weeks thereafter, and at the final visit if not performed in the past 4 weeks.

[3] = tested on: Aurora B (Y156H); parameters: method as in PMID 22935731; conditions: Y156H mutant, 1 mM ATP; read-out: Biochemical IC50 (95% confidence limits); cited from earlier work
[4] = tested on: Aurora C; parameters: method as in PMID 22935731; conditions: 1 mM ATP; read-out: Biochemical IC50 (95% confidence limits); cited from earlier work
[5] = tested on: VEGFR1; parameters: method as in PMID 22935731; conditions: 1 mM ATP; read-out: Biochemical IC50 (95% confidence limits); cited from earlier work
[6] = tested on: VEGFR3; parameters: method as in PMID 22935731; conditions: 1 mM ATP; read-out: Biochemical IC50 (95% confidence limits); cited from earlier work
[7] = tested on: FLT-3; parameters: method as in PMID 22935731; conditions: 1 mM ATP; read-out: Biochemical IC50 (95% confidence limits); cited from earlier work
[8] = tested on: PDGFR-α; parameters: method as in PMID 22935731; conditions: 1 mM ATP; read-out: Biochemical IC50 (95% confidence limits); cited from earlier work
[9] = tested on: Aurora A; parameters: method as in PMID 22935731; conditions: Aurora A autophosphorylation, nocodazole-arrested HeLa cells; read-out: Cellular PD marker IC50 (95% confidence limits); cited from earlier work
[10] = tested on: Aurora B; parameters: method as in PMID 22935731; conditions: Aurora B autophosphorylation, nocodazole-arrested HeLa cells; read-out: Cellular PD marker IC50 (95% confidence limits); cited from earlier work
[11] = tested on: Aurora C; parameters: method as in PMID 22935731; conditions: Aurora C autophosphorylation, nocodazole-arrested HeLa cells; read-out: Cellular PD marker IC50 (95% confidence limits); cited from earlier work
[12] = tested on: TEL:VEGFR1 catalytic domain fusion; parameters: method as in PMID 22935731; conditions: BaF3 cells expressing TEL:VEGFR1, proliferation as surrogate readout; read-out: Cellular PD marker IC50 (95% confidence limits); cited from earlier work
[13] = tested on: VEGFR2; parameters: method as in PMID 22935731; conditions: cited from earlier work
[14] = tested on: VEGFR3; parameters: method as in PMID 22935731; conditions: read-out: Cellular PD marker IC50 (95% confidence limits); cited from earlier work
[15] = tested on: FLT-3; parameters: method as in PMID 22935731; conditions: FLT-3 constitutively phosphorylated in SEM cells, 60 min exposure; read-out: Cellular PD marker IC50 (95% confidence limits); cited from earlier work
[16] = tested on: c-KIT; parameters: method as in PMID 22935731; conditions: KIT cellular phosphorylation, ligand stimulated; read-out: Cellular PD marker IC50 (95% confidence limits); cited from earlier work
[17] = parameters: method as in PMID 25933833; conditions: doses above 80 mg PO; data from haematologic malignancies study i.v. arm; cited from earlier work
[18] = 40 mg BID, basal cell carcinoma patient
[19] = 230 mg BID, adenocarcinoma of unknown primary site

## Nc1ncc(-c2cnn(CCO)c2)c2scc(-c3ccc(NC(=O)Nc4cccc(F)c4)cc3)c12 [ilorasertib, Ilorasertib]
[1]; Arm I, PO QD
  Dose that met the protocol criteria for exceeding the MTD: 180 mg
[1]; Arm II, PO BID
  Dose that met the protocol criteria for exceeding the MTD: 340 mg
[1]; human, in vivo, 1 cycle
  Patients who experienced DLTs: 10%
[1]; in vivo
  Total number of DLTs: ten
[2]; [18]
  Best response: partial response
[2]; [19]
  Best response: partial response
[3]
  IC50: […]
[4]
  IC50: […]
[5]
  IC50: […]
[6]
  IC50: 43 nM
[7]
  IC50: […]
[8]
  IC50: […]
[9]
  IC50: […]
[10]
  IC50: […]
[11]
  IC50: […]
[12]
  IC50: 0.3 nM
[13]; VEGFR2 cellular phosphorylation, ligand stimulated, read-out: Cellular PD marker IC50 (95% confidence limits)
  IC50: 5 nM
[13]; cellular assays
  Potency of VEGFR2 inhibition relative to Aurora kinase B: two- to five-fold more potent
[14]
  IC50: […]
[15]
  IC50: […]
[16]
  IC50: 45 nM
[17]
  Absolute oral bioavailability (estimate): […]
